Results on 34 compounds are retold here after patent US20090075978A1, “SUBSTITUTED PROPIOLIC ACID AMIDES AND THEIR USE FOR PRODUCING DRUGS” (Grunenthal GmbH, priority 2005, published 2009).

The target in the first assay is T1, mGluR5 receptor (pig) (Sus scrofa, UniProt I3LUI7).
T1 construct: 450 μg of protein from brain homogenate is incubated; from tissue; host or cells: pig brain hemispheres without medulla, cerebellum and pons
T1 sequence (I3LUI7 19-1212): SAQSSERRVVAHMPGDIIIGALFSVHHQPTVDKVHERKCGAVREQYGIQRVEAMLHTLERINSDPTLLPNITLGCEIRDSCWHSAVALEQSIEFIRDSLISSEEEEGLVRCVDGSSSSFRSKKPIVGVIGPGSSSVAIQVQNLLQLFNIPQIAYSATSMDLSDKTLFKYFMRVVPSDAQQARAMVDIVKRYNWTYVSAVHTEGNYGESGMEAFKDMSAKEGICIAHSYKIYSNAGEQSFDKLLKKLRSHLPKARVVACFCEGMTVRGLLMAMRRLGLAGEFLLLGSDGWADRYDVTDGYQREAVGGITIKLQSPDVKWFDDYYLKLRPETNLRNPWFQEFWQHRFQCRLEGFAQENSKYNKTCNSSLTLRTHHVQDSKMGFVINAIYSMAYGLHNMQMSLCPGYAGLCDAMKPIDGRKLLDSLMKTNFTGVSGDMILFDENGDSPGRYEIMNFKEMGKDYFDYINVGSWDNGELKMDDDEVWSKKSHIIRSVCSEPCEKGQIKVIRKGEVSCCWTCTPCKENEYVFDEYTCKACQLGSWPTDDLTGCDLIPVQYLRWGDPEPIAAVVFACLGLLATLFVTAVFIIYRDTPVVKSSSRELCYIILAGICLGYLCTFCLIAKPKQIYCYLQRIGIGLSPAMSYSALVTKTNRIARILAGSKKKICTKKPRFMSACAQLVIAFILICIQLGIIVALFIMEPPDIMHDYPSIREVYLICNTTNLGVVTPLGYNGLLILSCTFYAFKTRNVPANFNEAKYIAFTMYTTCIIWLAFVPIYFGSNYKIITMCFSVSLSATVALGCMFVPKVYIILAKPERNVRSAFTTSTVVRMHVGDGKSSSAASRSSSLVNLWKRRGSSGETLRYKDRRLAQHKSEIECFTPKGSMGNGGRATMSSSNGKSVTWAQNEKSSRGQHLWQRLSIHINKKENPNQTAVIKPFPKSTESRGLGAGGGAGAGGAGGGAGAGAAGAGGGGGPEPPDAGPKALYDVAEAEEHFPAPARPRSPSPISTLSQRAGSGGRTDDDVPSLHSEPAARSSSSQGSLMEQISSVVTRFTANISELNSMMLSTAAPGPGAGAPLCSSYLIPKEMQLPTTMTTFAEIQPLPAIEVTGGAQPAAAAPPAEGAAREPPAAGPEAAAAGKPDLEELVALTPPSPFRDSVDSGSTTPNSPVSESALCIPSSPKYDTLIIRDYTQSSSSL
The assay can be described thus: [3H]-MPEP binding in the mGluR5 receptor binding assay (pig brain homogenate). To be noted: 10 μM test compound; 5 nM [3H]-MPEP; 450 μg protein from pig brain homogenate; 60 min, room temperature. The method, then:
I. Method for Determining the Inhibition of [^3H]-MPEP Binding in the mGluR5 Receptor Binding Assay
Pig brain homogenate is produced by homogenisation (Polytron Pt 3000, Kinematica AG, 10,000 revolutions per minute for 90 seconds) of pig brain hemispheres without medulla, cerebellum and pons in a buffer of pH 8.0 (30 mM Hepes, Sigma, order number H3375+1 tablet Complete Roche Diagnostics, order number 1836145 made up to 100 ml) in a ratio of 1:20 (brain weight/volume) and differential centrifugation at 900×g and 40,000×g. 450 μg of protein from brain homogenate is incubated in each case in 250 μl incubation batches in 96-well microtitre plates with 5 nM ^3[H]-MPEP (Tocris, order number R1212) (MPEP=[…]) and the compounds to be investigated ([…]) in the buffer (as above) at room temperature for 60 min.
The batches are then filtered with the assistance of a Brandel Cell Harvester (Brandel, Robotic 9600 model) on Unifilter plates with glass filter mats (Perkin Elmer, order number 6005177) and then washed 3 times with buffer (as above) using 250 μl per sample. The filter plates are then dried for 60 min at 55° C. Then 30 μl of Ultima Gold™ scintillating material (Packard BioScience, order number 6013159) is added per well and after 3 hours the samples are measured using the β counter (Microbeta, Perkin Elmer). Nonspecific binding is determined by the addition of 10 μM MPEP (Tocris, order number 1212).
In the case of `COc1ccc(C#CC(=O)N2c3ccccc3CC2C)cc1` (stereo not shown) [Example 54, 1-(3-(4-methoxyphenyl)-propiolyl)-2-methyl-indoline], the “mGluR5 receptor (pig) (10 μM) Inhibition (%)” value turned out to be 46%.
On the same count and under the same terms, the same measure for `CC1Cc2ccccc2N1C(=O)C#Cc1cccs1` (stereo not shown) [Example 56, 1-(3-(2-thienyl)-propiolyl)-2-methyl-indoline]: 48%; for `Cc1ccc(C#CC(=O)N2CCc3ccccc3C2)cc1C` [Example 71, 2-(3-(3,4-dimethylphenyl)-propiolyl)-1,2,3,4-tetrahydro-isoquinoline]: 43%.
On the same count and under the same terms, the same measure for `Cc1ccc(C#CC(=O)N2c3ccccc3CC2C)cc1F` (stereo not shown) [Example 68, 1-(3-(3-fluoro-4-methylphenyl)-propiolyl)-2-methyl-indoline]: 11%; for `COc1ccc(C#CC(=O)N2CCc3ccccc3C2)cc1` [Example 53, 2-(3-(4-methoxyphenyl)-propiolyl)-1,2,3,4-tetrahydro-isoquinoline]: 24%; for `Cc1cccc(C#CC(=O)N2CCc3ccccc3C2)c1` [Example 51, 2-(3-(3-tolyl)-propiolyl)-1,2,3,4-tetrahydro-isoquinoline]: 103%.
The same measure, in the same setting: the same measure for `N#Cc1ccccc1C#CC(=O)N1CCc2ccccc2C1` [Example 76, 2-(3-(2-cyano-phenyl)-propiolyl)-1,2,3,4-tetrahydro-isoquinoline]: 26%; for `Cc1ccc(C#CC(=O)N2c3ccccc3CC2C)cc1C` (stereo not shown) [Example 72, 1-(3-(3,4-dimethylphenyl)-propiolyl)-2-methyl-indoline]: 25%; for `CC1Cc2ccccc2N1C(=O)C#Cc1cccc(Cl)c1` (stereo not shown) [Example 66, 1-(3-(3-chlorophenyl)-propiolyl)-2-methyl-indoline]: 70%.
For `O=C(C#Cc1ccccc1F)N1CCc2ccccc2C1` [Example 37, 2-(3-(2-fluorophenyl)-propiolyl)-1,2,3,4-tetrahydro-isoquinoline], the “mGluR5 receptor (pig) (10 μM) Inhibition (%)” value stood at 83%.
The same measure, in the same setting: the same measure for `CC1Cc2ccccc2N1C(=O)C#Cc1ccccc1` (stereo not shown) [Example 44, 1-(3-phenyl-propiolyl)-2-methyl-indoline]: 39%; for `COc1ccc(Br)c(C#CC(=O)N2c3ccccc3CC2C)c1` (stereo not shown) [Example 73, 1-(3-(2-bromo-5-methoxyphenyl)-propiolyl)-2-methyl-indoline]: 45%.
`COc1cccc(C#CC(=O)N2CCc3ccccc3C2)c1` [Example 34, 2-(3-(3-methoxyphenyl)-propiolyl)-1,2,3,4-tetrahydro-isoquinoline]: the “mGluR5 receptor (pig) (10 μM) Inhibition (%)” value is listed as 12%.
Same read-out and setting: with `Cc1ccc(C#CC(=O)N2c3ccccc3CC2C)cc1` (stereo not shown) [Example 40, 1-(3-(4-tolyl)-propiolyl)-2-methyl-indoline] the figure was 34%; with `N#Cc1cccc(C#CC(=O)N2CCc3ccccc3C2)c1` [Example 77, 2-(3-(3-cyano-phenyl)-propiolyl)-1,2,3,4-tetrahydro-isoquinoline], 90%.
On to `O=C(C#Cc1ccccc1)N1CCc2ccccc2C1` [Example 43, 2-(3-phenyl-propiolyl)-1,2,3,4-tetrahydro-isoquinoline], for which the “mGluR5 receptor (pig) (10 μM) Inhibition (%)” value turned out to be 84%.
On the same count and under the same terms, the same measure for `Cc1ccc(C#CC(=O)N2c3ccccc3CC2C)c(C)c1` (stereo not shown) [Example 63, 1-(3-(2,4-dimethylphenyl)-propiolyl)-2-methyl-indoline]: 34%.
As a reminder, the inhibition is how much of the control response was suppressed. Read a low inhibition as little suppression. Turning to `O=C(C#Cc1ccccc1)N1CCn2cnnc2C1` [Example 10, 7-(3-phenyl-propiolyl)-5,6,7,8-tetrahydro-[1,2,4]triazolo[4,3-a]pyrazine], 10 µM produced 16% inhibition.
In the case of `Cc1cc(C#CC(=O)N2CCc3ccccc3C2)ccc1F` [Example 35, 2-(3-(4-fluoro-3-methylphenyl)-propiolyl)-1,2,3,4-tetrahydro-isoquinoline], the “mGluR5 receptor (pig) (10 μM) Inhibition (%)” value is recorded as 77%.
On the same count and under the same terms, the same measure for `CC1Cc2ccccc2N1C(=O)C#Cc1ccc(Cl)cc1Cl` (stereo not shown) [Example 50, 1-(3-(2,4-dichlorophenyl)-propiolyl)-2-methyl-indoline]: 16%; for `Cc1ccc(C#CC(=O)N2CCc3ccccc3C2)cc1` [Example 39, 2-(3-(4-tolyl)-propiolyl)-1,2,3,4-tetrahydro-isoquinoline]: 44%.

Still in this assay, the particulars now being: pig brain homogenate; 5 nM [3H]-MPEP.
As a reminder, the IC50 is the concentration needed to halve the response being measured. A higher IC50 goes with a need for much substance. Consider `O=C(C#Cc1ccccn1)N1CCc2ccccc2C1` [Example 7, 2-(3-pyrid-2-yl-propiolyl)-1,2,3,4-tetrahydro-isoquinoline], for which the IC50 turned out to be 8570 nM.
On the same count and under the same terms, the same measure for `COc1cc2c(cc1O)CN(C(=O)C#Cc1cccc(Cl)c1)CC2` [Example 15, 2-(3-(3-chlorophenyl)-propiolyl)-7-hydroxy-6-methoxy-1,2,3,4-tetrahydro-isoquinoline]: 720 nM.
The same measure, in the same setting: with `O=C(C#Cc1cccc(Cl)c1)N1CCCc2ccccc2C1` [Example 21, 2-(3-(3-chlorophenyl)-propiolyl)-2,3,4,5-tetrahydro-1H-benzo[c]azepine] the figure was 110 nM.
Same read-out and setting: the same measure for `O=C(C#Cc1cccc(Cl)c1)N1CCc2cc(O)c(O)cc2C1` [Example 13, 2-(3-(3-chlorophenyl)-propiolyl)-7,6-dihydroxy-1,2,3,4-tetrahydro-isoquinoline]: 2540 nM.
`COc1ccc2c(c1)CN(C(=O)C#Cc1cccc(Cl)c1)CC2` [Example 22, 2-(3-(3-chlorophenyl)-propiolyl)-7-methoxy-1,2,3,4-tetrahydro-isoquinoline]: the IC50 came out at 76 nM. This IC50 lies about 33-fold lower than the previous one.
Still for that read-out and setting: with `Cc1ccc2c(c1)CN(C(=O)C#Cc1cccc(Cl)c1)CC2` [Example 25, 2-(3-(3-chlorophenyl)-propiolyl)-7-methyl-1,2,3,4-tetrahydro-isoquinoline] the figure was 4.7 nM; with `Cc1cccc2c1C(C)N(C(=O)C#Cc1cccc(Cl)c1)CC2` (stereo not shown) [Example 31, 2-(3-(3-chlorophenyl)-propiolyl)-1,8-dimethyl-1,2,3,4-tetrahydro-isoquinoline], 2.6 nM.
The same measure, in the same setting: the same measure for `O=C(C#Cc1cccc(Cl)c1)N1CCn2ccnc2C1` [Example 23, 7-(3-(3-chlorophenyl)-propiolyl)-5,6,7,8-tetrahydroimidazo[1,2-a]pyrazine]: 320 nM; for `O=C(C#Cc1ccccc1)N1CCCc2ccccc21` [Example 2, 1-(3-phenyl-propiolyl)-1,2,3,4-tetrahydro-quinoline]: 1750 nM; for `COc1ccc2c(c1)CCN(C(=O)C#Cc1cccc(Cl)c1)C2` [Example 17, 2-(3-(3-chlorophenyl)-propiolyl)-6-methoxy-1,2,3,4-tetrahydro-isoquinoline]: 240 nM.
Still for that read-out and setting: the same measure for `COc1cccc2c1CN(C(=O)C#Cc1cccc(Cl)c1)CC2` [Example 29, 2-(3-(3-chlorophenyl)-propiolyl)-8-methoxy-1,2,3,4-tetrahydro-isoquinoline]: 8.4 nM; for `O=C(C#Cc1ccccc1)N1CCc2ccccc21` [Example 3, 1-(3-phenyl-propiolyl)-2,3-dihydro-indole]: 7940 nM.
`COc1cc2c(cc1OC)CN(C(=O)C#Cc1cccc(Cl)c1)CC2` [Example 11, 2-(3-(3-chlorophenyl)-propiolyl)-6,7-dimethoxy-1,2,3,4-tetrahydro-isoquinoline] gave an IC50 of 2720 nM.
